Data set [1] addresses T1, PfFNT (Plasmodium falciparum, UniProt O77389).
T1 construct: expressed in transfected cells; membranes solubilized
T1 sequence (O77389 1-309): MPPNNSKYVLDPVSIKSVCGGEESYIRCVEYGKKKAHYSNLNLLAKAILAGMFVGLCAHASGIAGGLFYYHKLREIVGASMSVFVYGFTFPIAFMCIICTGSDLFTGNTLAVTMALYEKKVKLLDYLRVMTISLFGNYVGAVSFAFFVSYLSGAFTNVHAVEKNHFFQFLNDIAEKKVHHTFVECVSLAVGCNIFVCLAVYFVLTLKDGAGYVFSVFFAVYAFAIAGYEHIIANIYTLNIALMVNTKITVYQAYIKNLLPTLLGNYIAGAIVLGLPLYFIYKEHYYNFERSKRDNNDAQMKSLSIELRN
Kind of data set: Fluorescence cross-correlation spectroscopy (FCCS) competition binding to solubilized PfFNT-GFP. In outline: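 Solubilized membranes from stably transfected cells expressing C-terminally GFP-tagged PfFNT were competed against BH267.meta-DY647 tracer, with competitor titrated from 100 pM to 100 μM. IC50 came from the dual-labeled complex concentration, recorded 10 × 5 s with 488/633 nm excitation; Ki calculated by Cheng-Prusoff from the tracer KD.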

The nature of data set [2]: Microsomal clearance and half-life. As to conditions: for human liver microsomes Clint / half-life at 1 µM: 1 μM compound, 0.4 mg mL^–1 protein; for half-life at 1 µM: human, pooled human liver microsomes, pH 7.4, read-out: human liver microsomes t1/2. The class given is in vitro ADME, human. As to the method:
Clearance, half-life and plasma protein binding were assayed at TGC LifeScience, Kolkata, India, as described before.[36] Test compounds were incubated in duplicate in 96-well plates at 1 μM concentration with pooled human liver microsomes in 0.1 M phosphate buffer, pH 7.4 (0.4 mg mL^–1 final protein concentration; XenoTech, Lenexa, KS) in the presence and absence of 1 mM NADPH. Metabolism reactions were stopped by addition of 300 μL of ice-cold acetonitrile containing carbamazepine at 0.0236 μg mL^–1 as an internal standard, collection and analysis of the supernatant by LC–MS/MS (Agilent Rapid Resolution HPLC, AB SCIEX 4500 MS). The relative loss of the test compound over time was used to determine the first order rate constant for calculation of the in vitro intrinsic clearance and half-life.[37] Plasma protein binding was determined by ultracentrifugation from pooled human plasma spiked with 5 μM test compound. Aliquots were transferred immediately (total plasma concentration) or after 1 h at 37 °C (protein bound fraction) to ice-cold acetonitrile containing 0.0236 μg mL^–1 carbamazepine as an internal standard, ultracentrifuged for 4 h at 37 °C (Beckman Optima L-80XP), and analyzed by LC–MS/MS (Agilent Rapid Resolution HPLC, AB SCIEX 4500 QTRAP MS).
In general terms: Microsomes from liver hold many membrane-bound enzymes, among them those of drug oxidation.

Data set [3] concerns the target T1, PfFNT. Kind of data set: Yeast-based PfFNT 14C-lactate transport assay. It counts as cell-based. Here is the method: (§1) Lactate transport functionality of PfFNT was assayed as described before.[4] Briefly, Saccharomyces cerevisiae W303-1A jen1Δady2Δcells[32] (MATa, can1-100, ade2-loc, his3-11-15, leu2-3,-112, trp1-1-1, ura3-1, jen1::kanMX4, ady2::hphMX4) kindly provided by M. Casal expressing PfFNT was grown at 29 °C to an OD600 of 1 (±0.1). Harvested cells were resuspended to an OD600 of 50 (±5) in 50 mM HEPES/Tris, pH 6.8 (±0.1). 10–15 min prior to the assay, 80 μL of yeast suspension were added to 1 μL of DMSO with or without inhibitor in a 1.5 mL reaction tube at 18 °C. Twenty μL of L-lactate solution spiked with [1-^14C]-L-lactate (Hartmann Analytic) was added yielding a 1 mM inward gradient with 0.04 μCi label. Transport was stopped after 30 s by abrupt dilution with 1 mL of ice-cold water, vacuum filtration via GF/C filter membranes (Whatman), and washing with 7 mL of ice-cold water. The radio label was analyzed by liquid scintillation counting in 3 mL of scintillation cocktail (Rotiszint eco plus, Carl Roth) using a Packard TriCarb 2900 TR (PerkinElmer Inc.).
(§2) Transport assays in yeast were done in triplicate biological replicates. At least nine technical replicates were measured around the IC50 value, concentrations with no or full inhibition were determined from at least three technical replicates. EC50-values were determined from 2 to 4 biological replicates. IC50 and EC50 curves were fitted by the Hill equation with variable slope (Graph Pad Prism 10). Error bars denote ± SEM (for n ≥ 3) or ± range (for n = 2). For the EC50-value of 7a the error of the fitting of the curve is given. Cytotoxicity was determined from biological triplicates; error is shown as SEM.

The target of another data set is T2, PfFNT G107S (Plasmodium falciparum, UniProt O77389, G107S).
T2 construct: expressed in transfected cells; host or cells: Saccharomyces cerevisiae (yeast transport assay; strain as for wild type, inferred from the shared method)
T2 sequence (O77389 1-309 G107S): T1 sequence (O77389 1-309) with G107S
Kind of data set: Yeast-based 14C-lactate transport assay, PfFNT G107S resistance mutant. It counts as cell-based. Here is the method:
as §1, §2

Molecules are shown by their SMILES. Substitutions are numbered along the chain they refer to. Read-outs that look alike come from different tables or passages of the source.

As usually defined, the Ki is a measure of affinity in units of concentration, obtained from inhibition or displacement. High values mean lower affinity, low ones higher affinity. As a reminder, the IC50 is the concentration that inhibits the measured activity by half.

Regarding `CCCNc1ccc(C(=O)/C=C(\O)C(F)(F)C(F)(F)F)cn1` [7e, 4,4,5,5,5-Pentafluoro-3-hydroxy-1-(6-(propylamino)pyridin-3-yl)pent-2-en-1-one], at PfFNT [1], the affinity corresponds to a Ki of 0.022 ± 0.008 µM. Further, the “human liver microsomes Clint” value in data set [2] turned out to be 462.00 mL min^–1 kg^–1. Also, the half-life at 1 µM in data set [2] worked out at 0.05 h. Moreover, the IC50 on PfFNT [3] (14C-lactate transport, PfFNT wild type, read-out: IC50 (transport, yeast)) is 0.2 ± 0.02 µM; against PfFNT G107S, 0.63 µM.

`CC(=O)Nc1ccc(C(=O)/C=C(\O)C(F)(F)C(F)(F)F)cn1` [8a, N-[5-(4,4,5,5,5-Pentafluoro-3-hydroxypent-2-enoyl)pyridin-2-yl]acetamide] displayed a Ki on PfFNT [1] of 0.035 ± 0.008 µM. In data set [2], the “human liver microsomes Clint” value came to 10.64 mL min^–1 kg^–1 and the half-life at 1 µM was 2.17 h. In addition, the “microsomal clearance, times faster than that of 2” value in data set [2] (human liver microsomes) is 2.7 times. In addition, the IC50 at PfFNT [3] came out at 0.21 ± 0.01 µM. Also, the IC50 at PfFNT G107S was 12 µM.

The values are drawn from paper PMC11513924, “Addressing the Intracellular Vestibule of the Plasmodial Lactate Transporter PfFNT by p-Substituted Inhibitors Amplifies In Vitro Activity” (Journal of Medicinal Chemistry, 2024).
